Measurements published in ChEMBL document CHEMBL4184323, “Structure-Guided Design, Synthesis, and Characterization of Next-Generation Meprin β Inhibitors” (J Med Chem, 2018).

Key:
BMP1 = target: T1, BMP1 (Homo sapiens, UniProt P13497); assay: Inhibition of human BMP1 expressed in Escherichia coli assessed as residual activity using Abz-YVADAPK(Dnp)G-OH as substrate at 200 uM by fluorescence assay relative to control; settings: probe Abz-YVADAPK(Dnp)G-OH, read-out: Activity
T1 sequence (P13497 whole entry): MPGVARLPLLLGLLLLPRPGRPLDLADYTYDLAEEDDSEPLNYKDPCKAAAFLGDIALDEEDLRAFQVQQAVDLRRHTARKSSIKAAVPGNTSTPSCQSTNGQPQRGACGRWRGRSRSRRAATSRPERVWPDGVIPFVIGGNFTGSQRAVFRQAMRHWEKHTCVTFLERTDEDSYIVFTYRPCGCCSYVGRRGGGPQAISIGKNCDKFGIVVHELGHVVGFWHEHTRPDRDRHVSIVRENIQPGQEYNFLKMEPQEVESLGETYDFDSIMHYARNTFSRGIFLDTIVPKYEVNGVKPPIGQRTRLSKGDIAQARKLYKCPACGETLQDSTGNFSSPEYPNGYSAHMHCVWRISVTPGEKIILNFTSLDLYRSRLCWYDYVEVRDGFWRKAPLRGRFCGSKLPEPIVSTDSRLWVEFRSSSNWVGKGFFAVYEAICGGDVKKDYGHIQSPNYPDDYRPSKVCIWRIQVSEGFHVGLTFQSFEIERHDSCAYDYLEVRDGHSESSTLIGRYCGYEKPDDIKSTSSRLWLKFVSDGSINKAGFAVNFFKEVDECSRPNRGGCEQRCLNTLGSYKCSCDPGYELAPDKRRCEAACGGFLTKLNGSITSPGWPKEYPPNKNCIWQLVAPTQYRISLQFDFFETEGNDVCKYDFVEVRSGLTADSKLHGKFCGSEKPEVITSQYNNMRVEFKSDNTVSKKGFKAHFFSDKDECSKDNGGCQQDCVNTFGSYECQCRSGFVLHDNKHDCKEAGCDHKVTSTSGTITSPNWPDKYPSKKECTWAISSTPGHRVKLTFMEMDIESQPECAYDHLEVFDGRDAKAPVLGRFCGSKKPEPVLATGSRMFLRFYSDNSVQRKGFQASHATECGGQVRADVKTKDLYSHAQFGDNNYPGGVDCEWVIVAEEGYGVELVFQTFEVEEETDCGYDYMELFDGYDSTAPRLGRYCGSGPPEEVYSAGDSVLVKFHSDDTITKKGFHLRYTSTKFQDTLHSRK

[1] = Cmax in Sprague-Dawley rat at 5 mg/kg, po by LC-MS analysis; type: ADME, organism-based; set-up: dose 5 mg/kg, route oral; settings: in vivo
[2] = Tmax in Sprague-Dawley rat at 5 mg/kg, po by LC-MS analysis; type: ADME, organism-based; settings: in vivo
Rattus norvegicus = assay: Volume of distribution in Sprague-Dawley rat at 5 mg/kg, po by LC-MS analysis; type: ADME, organism-based; settings: in vivo
[3] = Drug absorption in Sprague-Dawley rat at 10 mg/kg, ip by LC-MS analysis; type: ADME, organism-based; settings: in vivo, read-out: Fabs
[4] = Cmax in Sprague-Dawley rat at 10 mg/kg, ip by LC-MS analysis; type: ADME, organism-based; set-up: dose 10 mg/kg, route intraperitoneal; settings: in vivo
[5] = Half life in Sprague-Dawley rat at 6 mg/kg, iv by LC-MS analysis; type: ADME, organism-based; settings: in vivo
[6] = Volume of distribution at steady state in Sprague-Dawley rat at 6 mg/kg, iv by LC-MS analysis; type: ADME, organism-based; settings: in vivo, read-out: Vdss
MMP2 = MMP2 (Homo sapiens, UniProt P08253); assay: Inhibition of human MMP2 assessed as residual activity using Mca-PLGL-(DapDnp)-AR-NH2 as substrate at 200 uM by fluorescence assay relative to control; settings: human MMP2 enzyme, probe Mca-PLGL-(DapDnp)-AR-NH2, read-out: Activity
MMP9 = MMP9 (Homo sapiens, UniProt P14780); assay: Inhibition of human MMP9 assessed as residual activity using Mca-PLGL-(DapDnp)-AR-NH2 as substrate at 200 uM by fluorescence assay relative to control; settings: human MMP9 enzyme, probe Mca-PLGL-(DapDnp)-AR-NH2, read-out: Activity
MMP13 = MMP13 (Homo sapiens, UniProt P45452); assay: Inhibition of human MMP13 assessed as residual activity using Mca-PLGL-(DapDnp)-AR-NH2 as substrate at 200 uM by fluorescence assay relative to control; settings: human MMP13 enzyme, probe Mca-PLGL-(DapDnp)-AR-NH2, read-out: Activity
ADAM10 = target: T2, ADAM10 (Homo sapiens, UniProt O14672); assay: Inhibition of human ADAM10 assessed as residual activity using Abz-LANAVRSSSR-(DapDnp)-AR-NH2 as substrate at 200 uM by fluorescence assay relative to control; settings: human ADAM10 enzyme, probe Abz-LANAVRSSSR-(DapDnp)-AR-NH2, read-out: Activity
T2 sequence (O14672 whole entry): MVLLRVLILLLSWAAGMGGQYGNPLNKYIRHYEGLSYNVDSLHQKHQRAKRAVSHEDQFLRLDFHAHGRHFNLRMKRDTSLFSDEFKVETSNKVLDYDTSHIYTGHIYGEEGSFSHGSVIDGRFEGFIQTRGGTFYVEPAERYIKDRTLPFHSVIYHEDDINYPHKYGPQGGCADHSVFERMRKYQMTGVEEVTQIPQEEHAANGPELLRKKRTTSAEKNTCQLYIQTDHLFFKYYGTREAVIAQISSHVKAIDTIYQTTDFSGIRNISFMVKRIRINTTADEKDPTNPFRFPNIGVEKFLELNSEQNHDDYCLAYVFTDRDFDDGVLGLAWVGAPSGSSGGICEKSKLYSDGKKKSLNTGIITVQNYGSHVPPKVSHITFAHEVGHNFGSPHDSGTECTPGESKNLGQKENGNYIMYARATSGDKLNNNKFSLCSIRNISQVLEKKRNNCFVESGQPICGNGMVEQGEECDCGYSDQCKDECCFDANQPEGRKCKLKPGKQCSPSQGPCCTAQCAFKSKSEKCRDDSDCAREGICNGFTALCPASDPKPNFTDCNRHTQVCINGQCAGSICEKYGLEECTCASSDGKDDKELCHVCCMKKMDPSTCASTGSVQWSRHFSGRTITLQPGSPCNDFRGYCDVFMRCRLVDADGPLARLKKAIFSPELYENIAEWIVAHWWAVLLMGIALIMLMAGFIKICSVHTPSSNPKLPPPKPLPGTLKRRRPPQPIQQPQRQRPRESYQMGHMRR

CYP3A4 = CYP3A4 (Homo sapiens, UniProt P08684); assay: Inhibition of recombinant human CYP3A4 expressed in baculosomes assessed as residual activity at 25 uM using BOMCC substrate by fluorescence assay relative to control; type: ADME; settings: probe BOMCC, read-out: Activity
SH-SY5Y = assay: Cytotoxicity in human SH-SY5Y cells assessed as cell viability at 100 uM after 24 hrs by CytoTox-ONE-based assay relative to control; type: functional; settings: read-out: Activity
HepG2 = assay: Cytotoxicity in human HepG2 cells assessed as cell viability at 100 uM after 24 hrs by CytoTox-ONE-based assay relative to control; type: functional; settings: HepG2, 24 h, read-out: Activity

MMP2, sequence (P08253 whole entry): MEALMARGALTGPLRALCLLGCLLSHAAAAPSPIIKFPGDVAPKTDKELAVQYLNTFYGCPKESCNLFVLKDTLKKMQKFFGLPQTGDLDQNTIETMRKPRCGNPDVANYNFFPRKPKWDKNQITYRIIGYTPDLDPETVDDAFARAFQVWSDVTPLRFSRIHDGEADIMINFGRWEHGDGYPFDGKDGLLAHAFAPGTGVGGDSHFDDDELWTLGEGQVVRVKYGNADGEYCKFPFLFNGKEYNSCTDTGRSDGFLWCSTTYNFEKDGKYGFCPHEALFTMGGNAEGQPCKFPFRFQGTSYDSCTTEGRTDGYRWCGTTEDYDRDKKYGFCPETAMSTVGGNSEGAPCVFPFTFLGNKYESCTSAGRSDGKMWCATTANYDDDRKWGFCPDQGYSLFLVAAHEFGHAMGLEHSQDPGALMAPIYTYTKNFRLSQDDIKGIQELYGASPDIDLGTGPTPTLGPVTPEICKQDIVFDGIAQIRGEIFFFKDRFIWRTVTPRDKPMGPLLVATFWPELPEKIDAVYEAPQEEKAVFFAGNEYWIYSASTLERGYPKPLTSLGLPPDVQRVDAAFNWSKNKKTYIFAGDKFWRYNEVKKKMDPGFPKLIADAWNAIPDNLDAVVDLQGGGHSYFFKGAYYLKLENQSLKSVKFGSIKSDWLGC
MMP9, sequence (P14780 whole entry): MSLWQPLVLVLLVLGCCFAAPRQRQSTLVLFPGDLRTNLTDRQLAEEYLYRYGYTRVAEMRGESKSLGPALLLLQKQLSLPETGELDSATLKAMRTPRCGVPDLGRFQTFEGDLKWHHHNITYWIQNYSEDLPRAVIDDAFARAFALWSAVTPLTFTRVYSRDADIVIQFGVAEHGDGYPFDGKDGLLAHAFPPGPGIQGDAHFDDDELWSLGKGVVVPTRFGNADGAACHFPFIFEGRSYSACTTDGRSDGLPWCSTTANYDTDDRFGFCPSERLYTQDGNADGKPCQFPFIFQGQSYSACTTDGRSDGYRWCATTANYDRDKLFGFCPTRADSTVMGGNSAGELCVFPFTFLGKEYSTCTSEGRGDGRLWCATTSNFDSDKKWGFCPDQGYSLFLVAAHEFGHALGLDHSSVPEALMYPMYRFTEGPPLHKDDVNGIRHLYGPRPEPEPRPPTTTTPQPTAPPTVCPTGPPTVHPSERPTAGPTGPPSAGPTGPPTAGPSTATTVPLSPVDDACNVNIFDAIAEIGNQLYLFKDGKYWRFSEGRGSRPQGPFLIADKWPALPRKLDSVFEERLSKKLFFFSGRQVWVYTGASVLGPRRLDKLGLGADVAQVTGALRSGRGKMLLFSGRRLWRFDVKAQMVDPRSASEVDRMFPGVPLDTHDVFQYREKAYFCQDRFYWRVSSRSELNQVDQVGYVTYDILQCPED
CYP3A4, sequence (P08684 whole entry): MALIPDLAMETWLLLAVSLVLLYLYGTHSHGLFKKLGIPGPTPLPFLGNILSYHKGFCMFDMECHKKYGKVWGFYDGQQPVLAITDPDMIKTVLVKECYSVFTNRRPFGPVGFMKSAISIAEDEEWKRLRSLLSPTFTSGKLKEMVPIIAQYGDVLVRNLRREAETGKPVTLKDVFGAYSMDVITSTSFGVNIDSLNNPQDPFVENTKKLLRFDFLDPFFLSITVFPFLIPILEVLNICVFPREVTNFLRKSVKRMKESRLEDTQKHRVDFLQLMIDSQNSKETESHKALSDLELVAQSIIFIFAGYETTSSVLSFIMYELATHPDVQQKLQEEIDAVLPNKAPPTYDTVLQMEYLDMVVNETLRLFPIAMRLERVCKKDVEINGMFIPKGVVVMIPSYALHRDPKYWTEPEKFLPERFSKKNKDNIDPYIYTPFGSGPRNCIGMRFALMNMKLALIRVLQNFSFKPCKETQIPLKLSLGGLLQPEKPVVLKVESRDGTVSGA

O=C(CN(Cc1cccc(C(=O)O)c1)Cc1cccc(C(=O)O)c1)NO
activity at 200 µM (BMP1): 87%
Cmax [1]: 340 ng/mL
Tmax [2]: 0.17 h
Vd (Rattus norvegicus): 0.073 L
Fa [3]: 84%
Cmax [4]: 6460 ng/mL
half-life [5]: 2.5 h
Vd [6]: 0.42 L/kg
activity at 200 µM (MMP2): 64%
activity at 200 µM (MMP9): 74%
activity at 200 µM (MMP13): 78%
activity at 200 µM (ADAM10): 93%
activity at 25 µM (CYP3A4): 86%
viability at 100 µM (SH-SY5Y): 96%
viability at 100 µM (HepG2): 97%
